This note sets out measurements from the SangsterLogP compilation.

Molecules are shown by their SMILES.

Broadly, the logP is the decadic logarithm of the partition coefficient of the neutral form, usually between octanol and water. Low values mean a more hydrophilic compound, high ones a more lipophilic compound. With `C=CBr`, the lipophilicity (logP) was 1.57.
The figure for `Cc1c[nH]c(=O)[nH]c1=O` is -0.62.
Then `O=C(/C=C/c1ccccc1)c1ccccc1`, with 3.08.
On to `CC(C)(C)CO`, for which the logP turned out to be 1.31.
Consider `NC(N)=S`, for which the logP was -1.08.
The figure for `O=[N+]([O-])c1cc[n+]([O-])c2ccc(Cl)cc12` is 1.41.
`Clc1ccccc1` registered a lipophilicity (logP) of 2.84.
The figure for `CC(C)=O` is -0.24.
The figure for `Cc1cccc(N)c1` is 1.4; for `Cc1cccc(C)c1C` it is 3.66.
The figure for `Oc1ncnc2[nH]ncc12` is -0.55; for `Cn1c(CO)cnc1[N+](=O)[O-]` it is -0.03; for `COc1cccc(O)c1` it is 1.34.
Regarding `CC(=O)Nc1ccc(OCC(O)CNC(C)C)cc1` (centres undefined), the lipophilicity (logP) is 0.79.
The figure for `O=[N+]([O-])c1cccc2cccnc12` is 1.4; for `Nc1ccc(C(=O)O)cc1Cl` it is 1.52; for `CNc1ccc(S(N)(=O)=O)cc1` it is 0.08.
The figure for `C=CCBr` is 1.79.
Then `NC(=O)Cc1ccccn1`, with -0.65; and `Cc1cccc(C)c1O`, with 2.36; and `NC(=O)NO`, with -1.8.
For `O=C(O)COc1ccc(Cl)cc1`, the log partition coefficient (logP) was determined as 2.25.
The figure for `CCOC(=O)c1ccccn1` is 0.87; for `C1CCNC1` it is 0.46; for `CC(C)[C@H](N)C(=O)O` it is -2.26.
Then `NC(=O)CCCCc1ccccn1`, with 0.38.
The compound `CCCC` returned a logP of 2.89.
Then `CCC(Cc1ccccn1)C(N)=O` (centres undefined), with -0.01.
In turn, `C1CCOC1` returned a lipophilicity (logP) of 0.46.
Turning to `Cc1cccc(Nc2ccccc2C(=O)O)c1C`, the logP stood at 5.12.
For `CCCCNC(=O)NCCCC`, the logP came to 1.4.
Then `O=C1CN=C(c2ccccc2)c2cc([N+](=O)[O-])ccc2N1`, with 2.25; and `O=[N+]([O-])c1ccc(N=C=S)cc1`, with 3.62; and `FC(F)(Cl)C(F)(F)Cl`, with 2.82.
For `Nc1ccc(S(=O)(=O)Nc2ccnn2-c2ccccc2)cc1`, the logP worked out at 1.52.
Then `O=C(O)c1ccc(I)cc1`, with 3.02; and `OCC(F)(F)F`, with 0.41.
Then `COc1nnc(C(C)C)c(=O)n1N`, with -0.06; and `CCCC(C)(COC(N)=O)COC(N)=O`, with 0.7.
Consider `Clc1cccc2cccnc12`, for which the logP worked out at 2.44.
Then `NCc1cccnc1`, with -0.32; and `Cc1ccc(N(C)C)cc1`, with 2.81.
Turning to `Oc1cccc(O)c1`, the logP was determined as 0.8.
In turn, `NCCCCc1ccccc1` returned a log partition coefficient (logP) of 2.4.
Then `CNC(=O)Oc1cccc(N(C)C)c1`, with 1.43; and `Cc1ccc(N=C=S)cc1`, with 3.92.
The figure for `Cc1cnc(NC(=O)C2=C(O)c3ccccc3S(=O)(=O)N2C)s1` is 3.43; for `NC(=O)c1ccc(Br)cc1` it is 1.76.
In turn, `O=c1ccn([C@H]2C[C@H](O)[C@@H](CO)O2)c(=O)[nH]1` had a logP of -1.51.
Then `Cn1cccc1`, with 1.21; and `COP(=O)(OC)OC`, with -0.65.
The figure for `CCCC[N+](=O)[O-]` is 1.47; for `NC(=O)c1ccc([N+](=O)[O-])cc1` it is 0.82.
With `Nc1nc2c(ncn2COCCO)c(=O)[nH]1`, the lipophilicity (logP) is -1.56.
Then `O=C(O)c1cccc(Cl)c1`, with 2.68; and `c1ccc(-c2ncc[nH]2)cc1`, with 1.88.
Then `O=[N+]([O-])c1ccccc1`, with 1.85.
Then `Nc1ccn([C@H]2C[C@H](F)[C@@H](CO)O2)c(=O)n1`, with -0.89; and `C[C@]12CCC(=O)C=C1CC[C@@H]1[C@@H]2C(=O)C[C@@]2(C)[C@H]1CC[C@]2(O)C(=O)CO`, with 1.47; and `COc1ccc(C(=O)O)cc1`, with 1.96.
On to `C=CCN1CC[C@]23c4c5ccc(O)c4O[C@H]2[C@@H](O)C=C[C@H]3[C@H]1C5`, for which the logP turned out to be 1.86.
Then `O=C1CN=C(c2ccccc2)c2cc(Cl)ccc2N1CC1CC1`, with 3.73; and `O=Nc1c(O)ccc2ccccc12`, with 2.28; and `NS(=O)(=O)c1ccc(O)cc1`, with 0.06.
Then `Oc1ccc(I)cc1`, with 2.91; and `Cc1ccccc1N(C)C`, with 2.85; and `CC(=O)C(C#N)=NNc1cc(C(F)(F)F)ccc1Cl`, with 5.08.
Then `Nc1ccccc1C(=O)O`, with 1.21; and `CC1=CC(=O)c2ccccc2C1=O`, with 2.2; and `c1ccc(-c2ccccc2)cc1`, with 3.98.
Turning to `C=C`, the log partition coefficient (logP) worked out at 1.13.
Then `Nc1cc(N2CCCCC2)nc(N)[n+]1[O-]`, with 1.24.
Then `NNC(=O)c1ccccc1`, with 0.19; and `CCOc1cccc(OC(=O)NC)c1`, with 1.75.
